Data reported in US9387199B2, “Compositions and methods for treating clostridium infection and preventing recurrence of infection” (priority 2013, dated 2016).

Columns and labels:
C. difficile VPI 10463 [1] = experiment: Histopathology scoring of cecal and colonic tissues in the murine CDI model; format: in vivo, C57BL/6 mice
C. difficile VPI 10463 [2] = experiment: Murine model of C. difficile infection and treatment (clinical score, survival, relapse), Example 1; details: for deaths prevented during the acute infection period: untreated infected survival 38%
C. difficile NAP1/BI/027 = details: infections due to NAP1/BI/027, treated subjects; cited from earlier work
[3] = uninfected mice, 5-day course of drug alone
IgG = system: IgG; set-up: species or system mice; details: mouse, in vivo
C. difficile VPI 10463 [4] = experiment: Cecal clostridial (tcdB qPCR) and toxin (TcdA/TcdB ELISA) burden in the murine CDI model; format: in vivo, C57BL/6 mice
Experimental: Food and water were allowed ad libitum. […] Stool specimens were collected daily.
Genomic DNA was extracted from the stool or cecal samples using a modified protocol for the QIAamp DNA stool minikits (Qiagen). Stool lysis buffer (400 μl) was added to a frozen stool sample-diluent (from enzyme-linked immunosorbent assay [ELISA]) mixture. Samples were then vortexed for 15 s and incubated at 82.5° C. for 5 min. The samples were vortexed for another 15 s and then centrifuged at 14,000 rpm for 2 min. The supernatant was added to a clean 1.5-ml microcentrifuge tube. Thirty microliters of proteinase K was added to the wall of each tube, followed by 400 μl of lysis buffer. Samples were vortexed for 15 s and then incubated at 70° C. for 10 min. After incubation, 400 μl of 100% ethanol was added to each sample and then mixed by vortexing. A total of 650 μl of the sample was then added to a spin column provided in the kit and centrifuged at 14,000 rpm for 1 min. The remaining volume of each sample was then added to the spin column and centrifuged under the same conditions. The samples were washed first with 500 μl of AW1 buffer and centrifuged at 14,000 rpm for 1 min and then with 500 μl of AW2 buffer and centrifuged at 14,000 rpm for 3 min. The DNA was eluted by adding 200 μl of elution buffer to the spin column and then centrifuging at 14,000 rpm for 1 min.

C. difficile = details: with drug use; cited from earlier work
[5] = second week postinoculation, infected control 2.7±0.9, uninfected 1.6±0.26
[6] = 20 mg/kg oral gavage daily for 5 days
[7] = first week after infection, 20 mg/kg oral gavage daily for 5 days, infected controls 5.7±0.9

For `CC(=O)Oc1ccccc1C(=O)Nc1ncc([N+](=O)[O-])s1` [nitazoxanide], the histopathology score (C. difficile VPI 10463 [1]; first week postinoculation, 20 mg/kg daily, untreated infected 12.5±0.7, max score 15) was 11.53±0.9, the histopathology score (C. difficile VPI 10463 [1]; [5]) was 4.2±0.6 and the “deaths prevented during the acute infection period” value (C. difficile VPI 10463 [2]; [6]) was 60%. For the same compound, the mean clinical score (C. difficile VPI 10463 [2]; [7]) was 5±1 and the “additional deaths in post-acute infection period” value (C. difficile VPI 10463 [2]; second week postinfection, 20 mg/kg daily for 5 days) was “no additional deaths were noted”.
For `CNC(CC(C)C)C(=O)NC1C(=O)NC(CC(N)=O)C(=O)NC2C(=O)NC3C(=O)NC(C(=O)NC(C(=O)O)c4cc(O)cc(O)c4-c4cc3ccc4O)C(O)c3ccc(c(Cl)c3)Oc3cc2cc(c3OC2OC(CO)C(O)C(O)C2OC2CC(C)(N)C(O)C(C)O2)Oc2ccc(cc2Cl)C1O` (stereo not drawn) [vancomycin], the histopathology score (C. difficile VPI 10463 [1]; at the peak of infection (day 3), uninfected control 2.2±1) is given as 4.5±1.6, the histopathology score (C. difficile VPI 10463 [1]; [5]) is given as 9.3±0.9 and the rate of recurrence (C. difficile NAP1/BI/027) is given as 23.6%. For the same compound, the “weight loss or increase in disease score” value [3] was “did not show weight loss or an increase in disease score”, the “IgG levels, low dose versus high dose” value (IgG) was “higher IgG levels” and the “deaths prevented during the acute infection period” value (C. difficile VPI 10463 [2]; [6]) was 100%. For the same compound, the “clinical score until recurrence of disease” value (C. difficile VPI 10463 [2]; 20 mg/kg/day for 5 or 10 days, both treatment groups) was under 1, the “infected mice that relapsed” value (C. difficile VPI 10463 [2]; 20 mg/kg/day for 5 days) was 67% and the “mortality rate, 10-day versus 5-day course” value (C. difficile VPI 10463 [2]; 20 mg/kg/day for 10 days) was “higher mortality rate”. The “time from end of treatment to relapse” value (C. difficile VPI 10463 [2]; 20 mg/kg/day, 5-day treatment course) was 4 days, the “time from discontinuation to relapse” value (C. difficile VPI 10463 [2]; 20 mg/kg/day, 10-day treatment course) was 3 days and the “weight loss and clinical outcomes by duration of treatment” value (C. difficile VPI 10463 [2]; 50 mg for 1 day only, versus 2, 3, 5 days) was “least weight loss and best clinical outcomes”. For the same compound, the overall mortality rate (C. difficile VPI 10463 [2]; 50 mg given for 5 days, infected controls 75%) was 100%, the deaths (C. difficile VPI 10463 [2]; by day 9 and onwards, after 5-day treatment at 20 mg/kg) was 62% and the mean clinical score (C. difficile VPI 10463 [2]; [7]) was 1.7±0.3. For the same compound, the mean clinical score (C. difficile VPI 10463 [2]; second week postinfection, 20 mg/kg daily for 5 days, surviving untreated infected mice 2.6) was 6.2±0.2, the “C. difficile DNA (tcdB) and toxin levels in cecal specimens” value (C. difficile VPI 10463 [4]; day 3 (peak of infection)) was “low” and the “clostridial burden in cecal specimens” value (C. difficile VPI 10463 [4]; day 6 (1 day after antibiotic was discontinued), persisted on days 9 and 12) was “increased clostridial burden”.
In the case of `Cc1ncc([N+](=O)[O-])n1CCO` [metronidazole], the recurrence rate (C. difficile) is given as at most 50%, the “infected mice that relapsed” value (C. difficile VPI 10463 [2]; 20 mg/kg/day for 5 days) is given as “none” and the “weight loss or diarrhea while on antibiotics” value (C. difficile VPI 10463 [2]; 20 mg/kg/day for 5 days, infected mice) is given as “had diarrhea and weight loss during treatment”. For the same compound, the “mice that died of infection during treatment” value (C. difficile VPI 10463 [2]; 20 mg/kg/day for 5 days, 6 mice per group) was “one mouse”.
